Measurements as given in US8592629B2, “Sulfonamide derivatives as Nav 1.7 inhibitors” (Pfizer Limited, priority 2010, dated 2013).

Assays:
[1] = target: T1, Nav1.7 (or SCN9A) channel (Homo sapiens, UniProt Q15858); assay: Nav1.7 (hSCN9A) block in HEK cells, Ionworks Quattro automated electrophysiology; type: cell-based; settings: Ionworks Quattro assay (IW); HEK cells stably transfected with hSCN9A; read-out: Nav1.7 EIC50 (IW)
T1 construct: expressed in transfected cells
Method: The ability of the compounds of formula (I) to block the Nav1.7 (or SCN9A) channel were measured using the assay described below.
Human Embryonic Kidney (HEK) cells were transfected with an hSCN9A construct using lipofectamine reagent (Invitrogen), using standard techniques. Cells stably expressing the hSCN9A constructs were identified by their resistance to G-418 (400 μg/ml). Clones were screened for expression using the whole-cell voltage-clamp technique.
HEK cells stably transfected with hSCN9A were maintained in DMEM medium supplemented with 10% heat-inactivated fetal bovine serum and 400 μg/ml G-418 in an incubator at 37° C. with a humidified atmosphere of 10% CO2. For HTS, cells were harvested from flasks by trypsinization and replated in an appropriate multi-well plate (typically 96 or 384 wells/plate) such that confluence would be achieved within 24 hours of plating. For electrophysiological studies, cells were removed from the culture flask by brief trypsinization and re-plated at low density onto glass cover slips. Cells were typically used for electrophysiological experiments within 24 to 72 hours after plating.
Electrophysiological assays were also conducted using the lonworks Quattro automated electrophysiological platform (Molecular Devices Corp). Intracellular and extracellular solutions were as described above with the following changes, 120 μg/ml amphotericin was added to the intracellular solution to perforate the membrane and allow electrical access to the cells. hSCN9A cells were grown and harvested as for PatchXpress and cells were resuspended in extracellular solution at a concentration of 1×10^6 cells/ml. The onboard liquid handling facility of the Ionworks Quattro was used for dispensing cells and application of test compounds. A voltage protocol was then applied that comprised of a voltage step to fully inactivate the sodium channels, followed by a brief hyperpolarized recovery period to allow partial recovery from inactivation for unblocked sodium channels, followed by a test depolarized voltage step to assess magnitude of inhibition by test compound. Compound effect was determined based on current amplitude difference between the pre-compound addition and post-compound addition scans.
Compounds of the Examples were tested in the assays described above and found to have the Nav1.7 EIC50 (μM) values specified in the table below. All data are derived from the PatchXpress assay unless explicitly stated otherwise.

[2] = target: T1, Nav1.7 (or SCN9A) channel; assay: Nav1.7 (hSCN9A) block in HEK cells, PatchXpress 7000 automated electrophysiology, estimated IC50 (EIC50); type: cell-based; settings: PatchXpress assay; HEK cells stably transfected with hSCN9A, voltage-clamped at V1/2 of inactivation
Method in brief: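 Stable hSCN9A HEK cells voltage-clamped at empirically determined inactivation V1/2 (8 s prepulse), current activated by 20 msec step to 0 mV; % inhibition from current before vs after compound. EIC50 derived from single-point data as concentration × (100−%inhibition)/%inhibition, excluding <20% and >80% inhibition; PatchXpress unless stated.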

T1 sequence (Q15858 whole entry): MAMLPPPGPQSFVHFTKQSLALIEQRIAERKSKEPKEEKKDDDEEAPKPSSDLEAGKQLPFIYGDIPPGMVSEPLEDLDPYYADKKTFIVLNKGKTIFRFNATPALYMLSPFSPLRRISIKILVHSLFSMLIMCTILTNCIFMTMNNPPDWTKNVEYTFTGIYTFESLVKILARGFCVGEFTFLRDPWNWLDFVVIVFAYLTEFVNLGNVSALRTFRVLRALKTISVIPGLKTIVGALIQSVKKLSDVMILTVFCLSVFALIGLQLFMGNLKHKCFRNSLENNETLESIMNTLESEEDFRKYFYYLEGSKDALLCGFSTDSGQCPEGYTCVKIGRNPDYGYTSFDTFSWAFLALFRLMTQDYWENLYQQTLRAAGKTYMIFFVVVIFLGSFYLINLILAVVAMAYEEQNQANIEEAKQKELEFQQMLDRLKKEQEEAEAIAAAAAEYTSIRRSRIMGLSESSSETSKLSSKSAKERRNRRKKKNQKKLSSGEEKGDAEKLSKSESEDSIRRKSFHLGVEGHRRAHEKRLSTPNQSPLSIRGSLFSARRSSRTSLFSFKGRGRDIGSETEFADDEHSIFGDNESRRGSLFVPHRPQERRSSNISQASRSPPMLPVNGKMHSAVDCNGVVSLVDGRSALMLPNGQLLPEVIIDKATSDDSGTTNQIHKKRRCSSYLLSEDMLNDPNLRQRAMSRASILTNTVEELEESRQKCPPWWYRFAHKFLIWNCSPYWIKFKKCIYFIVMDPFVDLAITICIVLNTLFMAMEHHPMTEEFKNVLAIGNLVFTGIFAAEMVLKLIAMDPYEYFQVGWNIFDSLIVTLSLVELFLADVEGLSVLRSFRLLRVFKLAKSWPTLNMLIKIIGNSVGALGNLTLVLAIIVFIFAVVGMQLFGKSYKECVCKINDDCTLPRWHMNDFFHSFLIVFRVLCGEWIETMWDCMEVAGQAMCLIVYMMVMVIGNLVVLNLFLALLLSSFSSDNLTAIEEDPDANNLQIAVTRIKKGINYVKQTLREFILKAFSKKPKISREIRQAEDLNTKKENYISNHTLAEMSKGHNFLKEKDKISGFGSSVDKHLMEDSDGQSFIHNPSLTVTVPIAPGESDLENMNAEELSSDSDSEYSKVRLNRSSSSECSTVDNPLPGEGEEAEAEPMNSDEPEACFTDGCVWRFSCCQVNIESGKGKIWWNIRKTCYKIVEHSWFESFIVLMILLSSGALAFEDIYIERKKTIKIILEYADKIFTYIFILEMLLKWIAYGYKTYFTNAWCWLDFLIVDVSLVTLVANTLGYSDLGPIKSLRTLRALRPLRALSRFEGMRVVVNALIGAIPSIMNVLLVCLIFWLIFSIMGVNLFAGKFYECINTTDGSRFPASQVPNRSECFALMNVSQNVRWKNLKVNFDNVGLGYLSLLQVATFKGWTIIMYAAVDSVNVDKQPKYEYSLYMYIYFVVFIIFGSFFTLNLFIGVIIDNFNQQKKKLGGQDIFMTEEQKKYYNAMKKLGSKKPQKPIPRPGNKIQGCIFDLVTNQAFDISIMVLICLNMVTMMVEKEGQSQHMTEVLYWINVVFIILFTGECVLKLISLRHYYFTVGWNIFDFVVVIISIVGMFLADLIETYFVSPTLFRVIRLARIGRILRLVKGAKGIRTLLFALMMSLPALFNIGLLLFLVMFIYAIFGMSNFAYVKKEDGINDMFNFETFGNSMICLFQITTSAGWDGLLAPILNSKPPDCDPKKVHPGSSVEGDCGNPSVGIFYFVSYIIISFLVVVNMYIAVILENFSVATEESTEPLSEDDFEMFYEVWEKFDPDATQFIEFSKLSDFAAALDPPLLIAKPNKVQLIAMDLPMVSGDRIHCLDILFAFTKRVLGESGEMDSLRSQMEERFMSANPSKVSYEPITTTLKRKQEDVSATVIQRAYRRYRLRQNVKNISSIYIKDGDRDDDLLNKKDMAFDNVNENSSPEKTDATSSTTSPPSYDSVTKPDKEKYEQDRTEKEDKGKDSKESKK

IC50 [1] [µM] | IC50 [2] [µM] | Structure (SMILES)
> 323 | – | CS(=O)(=O)NC(=O)c1cc(Cl)c(Oc2nccc3ccccc23)cc1F [Example L38, 5-chloro-2-fluoro-4-(isoquinolin-1-yloxy)-N-(methylsulfonyl)benzamide]
300 | – | Cc1ccc(Oc2ccc(C(=O)NS(C)(=O)=O)cc2F)cn1 [Example L51, 3-fluoro-4-[(6-methylpyridin-3-yl)oxy]-N-(methylsulfonyl)benzamide]
> 323 | – | CS(=O)(=O)NC(=O)c1ccc(Oc2nccc3ccccc23)c(Cl)c1 [Example L36, 3-chloro-4-(isoquinolin-1-yloxy)-N-(methylsulfonyl)benzamide]
41 | – | CS(=O)(=O)NC(=O)c1ccc(Oc2cc3ccccc3cn2)c(C#N)c1 [Example L43, 3-cyano-4-(isoquinolin-3-yloxy)-N-(methylsulfonyl)benzamide]
222 | – | CS(=O)(=O)NC(=O)c1ccc(Oc2ccc3ccccc3n2)c(C#N)c1 [Example L34, 3-cyano-N-(methylsulfonyl)-4-(quinolin-2-yloxy)benzamide]
173 | – | COc1cc(Oc2cc(F)c(C(=O)NS(C)(=O)=O)cc2F)ncn1 [Example 200, 2,5-difluoro-4-[(6-methoxypyrimidin-4-yl)oxy]-N-(methylsulfonyl)benzamide]
57.4 | – | COc1c(C(=O)NS(C)(=O)=O)ccc(Oc2cnc(N3CCCCC3)nc2)c1F [Example L62, 3-fluoro-2-methoxy-N-(methylsulfonyl)-4-[(2-piperidin-1-ylpyrimidin-5-yl)oxy]benzamide]
29.3 | – | COc1ccc2nc(Oc3cc(F)c(C(=O)NS(C)(=O)=O)cc3F)ccc2c1 [Example 190, 2,5-difluoro-4-[(6-methoxyquinolin-2-yl)oxy]-N-(methylsulfonyl)benzamide]
> 323 | – | CS(=O)(=O)NC(=O)c1cc(F)c(Oc2nncc3ccccc23)cc1F [Example 195, 2,5-difluoro-N-(methylsulfonyl)-4-(phthalazin-1-yloxy)benzamide]
> 323 | – | CCCc1ncc(F)c(Oc2cc(F)c(C(=O)NS(C)(=O)=O)cc2F)n1 [Example 197, 2,5-difluoro-4-[(5-fluoro-2-propylpyrimidin-4-yl)oxy]-N-(methylsulfonyl)benzamide]
121 | – | COc1c(C(=O)NS(C)(=O)=O)ccc(Oc2ccc(Oc3ccc(F)cc3)nc2)c1F [Example L47, 3-fluoro-4-{[6-(4-fluorophenoxy)pyridin-3-yl]oxy}-2-methoxy-N-(methylsulfonyl)benzamide]
38.5 | – | CCCc1ccc(Oc2ccc(C(=O)NS(C)(=O)=O)cc2F)cn1 [Example L48, 3-fluoro-N-(methylsulfonyl)-4-[(6-propylpyridin-3-yl)oxy]benzamide]
> 323 | – | Cc1cc(N(C)C)nc(Oc2cc(F)c(C(=O)NS(C)(=O)=O)cc2F)n1 [Example 186, 4-{[4-(dimethylamino)-6-methylpyrimidin-2-yl]oxy}-2,5-difluoro-N-(methylsulfonyl)benzamide]
300 | – | CCc1ccc(Oc2ccc(C(=O)NS(C)(=O)=O)c(C)c2)cn1 [Example L55, 4-[(6-ethylpyridin-3-yl)oxy]-2-methyl-N-(methylsulfonyl)benzamide]
232 | – | CCc1cn2nc(Oc3cc(F)c(C(=O)NS(C)(=O)=O)cc3F)ccc2n1 [Example 180, 4-[(2-ethylimidazo[1,2-b]pyridazin-6-yl)oxy]-2,5-difluoro-N-(methylsulfonyl)benzamide]
232 | – | Cc1nccnc1Oc1cc(F)c(C(=O)NS(C)(=O)=O)cc1F [Example 189, 2,5-difluoro-4-[(3-methylpyrazin-2-yl)oxy]-N-(methylsulfonyl)benzamide]
100 | – | Cc1ncc(Oc2ccc(C(=O)NS(C)(=O)=O)cc2C(F)(F)F)cn1 [Example L61, 4-[(2-methylpyrimidin-5-yl)oxy]-N-(methylsulfonyl)-3-(trifluoromethyl)benzamide]
216 | – | Cc1ncc(Oc2ccc(C(=O)NS(C)(=O)=O)cc2Cl)cn1 [Example L58, 3-chloro-4-[(2-methylpyrimidin-5-yl)oxy]-N-(methylsulfonyl)benzamide]
> 323 | – | Cc1cc(Oc2cc(F)c(C(=O)NS(C)(=O)=O)cc2F)ncn1 [Example 199, 2,5-difluoro-4-[(6-methylpyrimidin-4-yl)oxy]-N-(methylsulfonyl)benzamide]
> 323 | – | CS(=O)(=O)NC(=O)c1ccc(Oc2cncnc2)c(Cl)c1 [Example L64, 3-chloro-N-(methylsulfonyl)-4-(pyrimidin-5-yloxy)benzamide]
> 323 | – | Cc1cc(Oc2cc(F)c(C(=O)NS(C)(=O)=O)cc2F)nc(C)n1 [Example 183, 4-[(2,6-dimethylpyrimidin-4-yl)oxy]-2,5-difluoro-N-(methylsulfonyl)benzamide]
> 323 | – | Cn1cnc2cccc(Oc3cc(F)c(C(=O)NS(C)(=O)=O)cc3Cl)c21 [Example L44, 5-chloro-2-fluoro-4-[(1-methyl-1H-benzimidazol-7-yl)oxy]-N-(methylsulfonyl)benzamide]
> 323 | – | CS(=O)(=O)NC(=O)c1cc(F)c(Oc2ncc(Cl)cn2)cc1F [Example 198, 4-[(5-chloropyrimidin-2-yl)oxy]-2,5-difluoro-N-(methylsulfonyl)benzamide]
50.2 | – | CS(=O)(=O)NC(=O)c1ccc(Oc2cnc3ccccc3c2)c(C#N)c1 [Example L35, 3-cyano-N-(methylsulfonyl)-4-(quinolin-3-yloxy)benzamide]
> 323 | – | CS(=O)(=O)NC(=O)c1ccc(Oc2cncc3ccccc23)c(C#N)c1 [Example L37, 3-cyano-4-(isoquinolin-4-yloxy)-N-(methylsulfonyl)benzamide]
> 323 | – | Cc1cc(C#N)nc(Oc2cc(F)c(C(=O)NS(C)(=O)=O)cc2F)c1 [Example 185, 4-[(6-cyano-4-methylpyridin-2-yl)oxy]-2,5-difluoro-N-(methylsulfonyl)benzamide]
– | 1.8 | CS(=O)(=O)NC(=O)c1cc(F)c(Oc2cnc(C(F)(F)F)c(Cl)c2)cc1F [Example 68, 4-{[5-chloro-6-(trifluoromethyl)pyridin-3-yl]oxy}-2,5-difluoro-N-(methylsulfonyl)benzamide]
– | 0.24 | CC(C)Oc1ncc(Oc2cc(F)c(C(=O)NS(C)(=O)=O)cc2Cl)cc1C#N [Example 8, 5-Chloro-4-[(5-cyano-6-isopropoxypyridin-3-yl)oxy]-2-fluoro-N-(methylsulfonyl)benzamide]
